Two compounds from PMC10451034, “Highly Efficient Photosensitizers with Molecular Vibrational Torsion for Cancer Photodynamic Therapy” (ACS Central Science, 2023) can be followed below.

Each structure is given as a SMILES string.

In one series the test system is HepG2 cells. The experiment in a line: MTT cytotoxicity assay, HepG2. Type of series: cell-based, human. The settings on record: Homo sapiens, HepG2, light or radiation study, HepG2, 660 nm irradiation 12 J/cm^2. The source says:
To further quantitatively explore the in vitro anticancer potency of QTCy7-R, the methyl thiazolyltetrazolium (MTT) assay was employed to detect cell viability. […] Next, we evaluated the cytotoxicity under dark conditions of this series of compounds at high concentrations (Figure 9e), as due to the characteristics of mitochondrial accumulation, QTCy7-Me and QTCy7-Ph might lead to mitochondrial depolarization and apoptosis at high concentrations. However, its IC50 value could still reach about 60 μM, which was almost […] than those of all cyanine photosensitizers reported. […] The photocytotoxicity index value (dark IC50/light IC50) of QTCy7-Ac was >500, manifesting that QTCy7-Ac is a PS with high efficacy but low cytotoxicity, which is extremely promising in clinical application. […]
Cytotoxicity was tested by the reduction of methyl thiazolyl tetrazolium to formazan by succinic acid dehydrogenase in the mitochondria of living cells (MTT assay). HepG2 cells, MCF7 cells and 4T1 cells were seeded to 96-well microplates (Nunc, Denmark) with a density of 1 × 10^5 cells/mL cells in 100 μL DMEM medium and incubated at 37 °C for 24 h. When the cell density reached about 70%, the QTCy7-R with different concentrations (4, 3, 2, 1.5, 1, 0.75, 0.5, 0.25, 0 μM) in PBS were added to the wells of cells in dark condition, respectively. For light groups, the cell incubation conditions were the same as those of the dark group and the cells were further incubated for 2 h, subsequently, the cells were subjected to 660 nm irradiation (20 mW/cm2) for different time (10 min, 5 min and 2.5 min) corresponding to different light doses (12 J/cm2, 6 J/cm2 and 3 J/cm2). Then all the cells were incubated for 12 h, after which the MTT solution in DMEM (0.5 mg/ml, 100 μL) was added to each well and the cells were incubated at 37 °C for another 4 h. The MTT solution was carefully removed and 100 μL DMSO was added to dissolve formazan, and the absorbance of each well was measured by a multifunctional microplate reader at 570 nm and 630 nm. The cell viability was obtained by the following equation: […]
Where “OD” represent the absorbance at 570 nm and 630 nm, “ps” and “control” represent experimental groups and control groups, respectively. […]
For orientation: Tetrazolium assays rely on reduction of a dye to a coloured formazan, in cell work by metabolically active cells.

A short description of series [1]: Singlet oxygen quantum yield by DPBF decay curve method. It counts as physicochemical. The settings on record: in dichloromethane. On the procedure: Afterward, the singlet oxygen yields of the series of molecules were preliminarily measured and analyzed by the 1,3-diphenylisobenzofuran (DPBF) decay curve method (Figures 2d,e and S2). […] Meanwhile, in order to exclude the effect of the rigid structure, ΦΔ of a Cy7-like reference molecule (TCy7C) with a rigidified structure but absence of an oxygen atom was measured. The singlet oxygen yield of TCy7C was 2.2%, even lower than that of TCy7 under the same conditions (Figure S3). […]
Photoexcited singlet oxygen production was detected by employed 1,3-diphenylisobenzofuran (DPBF) as the indicator. The absorbance of DPBF at 415 nm was regulated to about 1.0 in DCM. And the samples were irradiated with 660 nm light for various times, then the absorption spectra of different time nodes were recorded.
The singlet oxygen quantum yield (ΦΔ) was calculated by the following equation:
Where “Φ” represent the singlet oxygen quantum yield , “sam” and “std” represent QTCy7-R and MB, respectively. “m” is the slope of the absorbance of DPBF at 415 nm with time, F=1–10-O.D. (O.D. is the absorbance of samples at 660 nm). […]

Series [2] in a line: UV-vis absorption, fluorescence emission, absolute fluorescence quantum yield and fluorescence lifetime. Type of series: physicochemical. As for the experimental part: First, the UV–vis absorption and fluorescence emission spectra of the series of compounds were measured and analyzed. […] Concurrently, the Stokes shifts of all four compounds were more than 60 nm (Figure 2a,b and Table 1), which could effectively improve the signal-to-noise ratio (SNR) of fluorescence compared to the ordinary TCy7. The fluorescence lifetimes of all four compounds were within 2 ns, indicating no delayed fluorescence generation (Figure 2c and Table 1). […]
Materials and Instrumentation
All the general chemicals used in this paper are purchased from Energy Chemical Co. and Innochem Chemical Co. unless otherwise specified. All solvents were […]
analytically pure. […]
All the other solvents and reagents used in this study were of analytical grade. All the BALB/c mice were purchased from Liaoning […]
III 500 spectrometers. Absorption and emission spectra for all the compounds were achieved on the Agilent Technologies CARY 60 UV -Vis spectrophotometer and VAEIAN CARY Eclipse fluorescence spectrop hotometer (Serial No. FL0812 -M018), […]
respectively. Unless otherwise specified, all spectroscopic tests were performed in a quartz cell (10×10 mm). Fluorescence quantum yield of all the compounds were measured on the HAMAMATSU absolute fluorescence quantum yield spectrometer (Serial No. C11347). Triplet lifetime of compounds were acquired on LP980 laser flash photolysis spectrometer (Edinburgh Instruments, U.K.). The cell confocal laser scanning microscope (CLSM) images were all obtained by using Olympus FV3000 confocal laser scanning microscope. […]
Figure 4, Figure S6 and Figure S7). The spin-orbital coupling (SOC) values between the S1/S1V and T2 were calculated with ORCA 4.13. Hole-Electron analysis was carried […]
ISC rate constants calculation […]
Triplet lifetime measurements
The triplet life of QTCy7-R was measured by LP980 laser flash photolysis spectrometer (Edinburgh Instruments Ltd.) in combination with a Nd:YAG laser (Surelite I-10, Continuum Electro-Optics, Inc.). The oxygen in the sample was removed by aerating nitrogen for 30 min. The samples (5 μM) were excited by a 610 nm laser pulse (1 Hz, 100 mJ per pulse, fwhm ≈ 7 ns) at 300 K. The triplet state decay kinetics were measured at the maximum absorption wavelengths of each compound.
Fluorescence lifetime and femtosecond time-resolved transient absorption spectra […]
The fluorescence lifetimes and femtosecond time-resolved transient absorption spectra of dyes were recorded on a freshly prepared samples using the time-correlated single photon counting (TCSPC) method (PicoQuant PicoHarp 300) at 300 K. The concentration is 10 μM, solvent is DCM.
Hepatoma carcinoma cells (HepG-2 cells), human mammary carcinoma (MCF-7) and mouse breast cancer cells (4T1) were maintained in Dulbecco’s modified Eagle’s

Compound `C=Cc1c(C)c2cc3nc(c(CC(=O)O)c4[nH]c(cc5nc(cc1[nH]2)C(C)=C5CC)c(C)c4C(=O)O)[C@@H](CCC(=O)O)[C@@H]3C` [Ce6, chlorin e6, reference compound] had an IC50 in the series with HepG2 cells of 3.5 µM.
With `CCN1/C(=C/C=C/C=C/C=C/c2sc3ccccc3[n+]2CC)Sc2ccccc21` [TCy7, reference compound], the “ΦΔ, singlet oxygen yield” value in series [1] (DPBF method) was 2.6%. Moreover, in series [1] (methylene blue as standard, 660 nm irradiation), the “ΦΔ, singlet oxygen quantum yield” value worked out at 0.026. For the same compound, the “ΦF, absolute fluorescence quantum yield” value in series [2] was found to be 19.3%. Further, in series [2] (in dichloromethane), the “Δλ, Stokes shift” value stood at 23 nm; the “λabs, maximum absorption wavelength” value stood at 770 nm; the “λem, maximum emission wavelength” value amounted to 793 nm; the “τS, fluorescence lifetime” value amounted to 1.54 ns.

For orientation: IC50 means the concentration needed to halve the response being measured. A high value points to a need for much substance.
